Measured values as given in patent US20240270811A1, “Glycosylated Neuropeptide Derivative, Pharmaceutical Composition, Intranasal/Nasal Drop Formulation, and Use of Pharmaceutical Composition” (Tokyo University of Science Foundation, priority 2021, published 2024).
Where no end group is shown, it is not given here. The star is where a group is joined. X1 = CC(=O)N[C@@H]1[C@@H](O)[C@H](O[C@@H]2O[C@H](CO)[C@@H](O[C@@H]3O[C@H](CO[C@H]4O[C@H](CO)[C@@H](O)[C@H](O)[C@@H]4O[C@@H]4O[C@H](CO)[C@@H](O[C@@H]5O[C@H](CO[C@]6(C(=O)O)C[C@H](O)[C@@H](NC(C)=O)[C@H]([C@H](O)[C@H](O)CO)O6)[C@H](O)[C@H](O)[C@H]5O)[C@H](O)[C@H]4NC(C)=O)[C@@H](O)[C@H](O[C@H]4O[C@H](CO)[C@@H](O)[C@H](O)[C@@H]4O[C@@H]4O[C@H](CO)[C@@H](O[C@@H]5O[C@H](CO[C@]6(C(=O)O)C[C@H](O)[C@@H](NC(C)=O)[C@H]([C@H](O)[C@H](O)CO)O6)[C@H](O)[C@H](O)[C@H]5O)[C@H](O)[C@H]4NC(C)=O)[C@@H]3O)[C@H](O)[C@H]2NC(C)=O)[C@@H](CO)O[C@H]1NC(=O)C*

Columns and labels:
[1] = Brain distribution by immunostaining and fluorescence quantification (Example 7); format: in vivo; conditions: 3.0 nmol/mouse intranasal
Description: Mice were intranasally administered with 16% DMSO or GLP-2 derivatives (3.0 nmol/mouse), and the brain was isolated 5 minutes, 10 minutes, 20 minutes and 60 minutes after the administration.
The brain isolated 5 minutes or 10 minutes after the intranasal administration was subjected to infiltration fixation with 4% PFA at 4° C. overnight without performing perfusion fixation. The isolation of the brain 20 minutes or 60 minutes after the intranasal administration was performed by the following process.
The mouse was fixed in a supine position under anesthesia with isoflurane, and the chest was incised. PBS and 4% PFA were perfused, in this order, from the left chamber of the heart throughout the whole body for fixing the tissue. The isolated brain was preserved in a 4% PFA solution. On the day following the isolation, the brain samples were substituted with 20% sucrose overnight (4° C.), and further with 30% sucrose overnight (4° C.). Thereafter, a frozen section with a thickness of 30 μm was prepared using a cryostat (CM3050S; Leica Microsystems).
Sections of the olfactory bulb (OB) including olfactory nerves, pons/principal sensory nucleus of trigeminal nerve (Pr5), hippocampus (HIP) and dorsomedial nucleus of the hypothalamus (DMH) were prepared by referring to Nissil staining images and the brain map (Paxinos and Franklin, 2003).
The frozen brain section was mounted on a slide glass, and a circle was drawn around the section with a liquid blocker. A blocking buffer was added inside the circle and the section was subjected to blocking for 30 minutes at room temperature. Thereafter, the section was added with a first antibody solution including a GLP-2 polyclonal antibody, diluted 200 times with a blocking solution, and subjected to incubation for 1 hour at room temperature. After washing three times with 1×PBS, the section was added with a second antibody solution including Alexa Fluor (trademark) 568 Goat Anti-Mouse IgG H&L, diluted 500 times with a BSA/PBS solution, and subjected to incubation for 1 hour at room temperature. After washing three times with 1×PBS, the section was mounted with ProLong (trademark) Diamond Antifade Mountant. After confirming the solidification of the mountant, the section was subjected to fluorescent observation and imaging with a confocal laser microscope (TCS SP8; Leica) and a software (Leica Application Suite X Software; Leica). Further, the fluorescent intensity in the image was calculated using the software and an average florescent intensity of each group was quantified.
The mice were intranasally administered with a PAS-CPP-GLP-2 (no sugar) or a PAS-CPP-GLP-2 (11-sugar).

[2] = Observation of section of trigeminal nerve after intranasal administration (FITC-labelled); format: in vivo, mouse; conditions: 3.0 nmol/4 μL intranasal, 5 minutes
Description: After anesthetizing 7-week-old male ddY mice with isoflurane using an all-in-one small animal anesthetizer, a 16% DMSO solution of a PAS-CPP-GLP-2 derivative (11-sugar) labeled with FITC (3.0 nmol/4 μL) or 16% DMSO as a control was intranasally administered to the mice by the amount of 2 μL per nose cavity, 4 μL in total. The trigeminal nerve was isolated 5 minutes after the administration.
The trigeminal nerve was subjected to infiltration fixation with 4% PFA overnight. On the day following the isolation, the trigeminal nerve was substituted with 20% sucrose overnight (4° C.), and further with 30% sucrose overnight (4° C.). Thereafter, a frozen section with a thickness of 20 μm was prepared using a cryostat (CM3050S; Leica Microsystems).
The frozen section was mounted on a slide glass, and a circle was drawn around the section with a liquid blocker. To the inner side of the circle, 10 mM CuSO4/CH3COONH4 having an ability to suppress auto-fluorescence was added to immerse the section for 15 minutes. After washing three times with 1×PBS, a blocking buffer was added inside the circle and the section was subjected to blocking for 30 minutes at room temperature. […]

[3] = Observation of section of trigeminal lemniscus after intranasal administration; format: in vivo; conditions: 3.0 nmol/mouse intranasal, 15 minutes
Description: Mice were intranasally administered with 16% DMSO or a glycosylated GLP-2 derivative (3.0 nmol/mouse). The brain was isolated 15 minutes after the administration, and was subjected to infiltration fixation with 4% PFA overnight. On the day following the isolation, the brain was substituted with 30% sucrose overnight (4° C.). Thereafter, a frozen section of trigeminal lemniscus with a thickness of 30 μm was prepared using a cryostat (CM3050S; Leica Microsystems, WetZlar, Germany).
The frozen section was mounted on a slide glass, and was subjected to blocking for 30 minutes at room temperature with a blocking buffer. Thereafter, the section was added with a first antibody solution including Neuro-Chrom (trade name) Pan Neuronal Marker Antibody-Rabbit, diluted with a blocking buffer (1:500), and subjected to incubation overnight (4° C.). After washing three times with 1×PBS, the section was added with a first antibody solution including a GLP-2 polyclonal antibody diluted with a BSA/PBS solution (1:200), and subjected to incubation for 2 hours at room temperature. After washing three times with 1×PBS, the section was added with a second antibody solution including Alexa Fluor (trademark) 568 Goat Anti-Mouse IgG H&L, diluted 1000 times with a 1% BSA/PBS solution and DAPI ([…]), and subjected to incubation for 1 hour at room temperature. […]

Substance: FFLIPKGRRRRRRRRGGHADGSFSDEMNTILDNLAARDFINWLIQTKITDC(X1)-OH [PAS-CPP-GLP-2 (11-sugar)]
- fluorescence at OB and Pr5 ([1]; 5 minutes): a significant degree of fluorescence was observed
- fluorescence at HIP and DMH ([1]; 20 minutes): intense fluorescence was observed
- fluorescence intensity at OB or Pr5 compared with 5 minutes ([1]; 20 minutes): weaker than the fluorescence observed 5 minutes after the administration
- fluorescence at HIP and DMH ([1]; 60 minutes): a significant degree of fluorescence was observed
- fluorescence at OB and Pr5 ([1]; 60 minutes): a significant degree of fluorescence was observed
- fluorescence intensity at OB and Pr5 compared with 5 minutes ([1]; 60 minutes): weaker than the fluorescence observed 5 minutes after the administration
- fluorescence in section of trigeminal nerve (overlap of derivative and neural fibers) [2]: expresses yellow fluorescence
- fluorescence in nerve bundle that constitutes the trigeminal lemniscus [3]: a large amount of fluorescence for a drug was observed
